# Reference: patent publication US11420963B2, “Rebamipide prodrugs, preparation method and use thereof” (SAMJIN PHARMACEUTICAL CO., LTD., priority 2012, dated 2022)
# “Also recorded” adds a separate entry of the source. Like-named read-outs stand apart in the source and are kept apart here.
# Assays:
# [1] = Hydrolysis of prodrug into acting drug (rebamipide) in whole blood of rat, HPLC; format: in vitro ADME; settings: for half-life at 0.196 mg/mL: half life of conversion from prodrug to rebamipide, read-out: Conversion Time in Whole Rat Blood (t1/2)
# Experimental: Frozen rat blood was thawed for about 1 hr in a 37° C. water bath and homogenized.
# A stock solution was prepared by dissolving 10 mg of the compound of each Example in 1 mL of CAN. Optionally, a buffer (prepared by mixing 750 mL of a solution of Na2HPO4 0.58 g and KH2PO4 2 g in 1 L of H2O with 250 mL of CAN) was added. In a 4 mL tube, 40 μL of the stock solution was uniformly mixed with 2 mL of blood by shaking, followed by storage at 30 rpm in a water bath.
# At 0, 2, 4, 6, 8, 10, 15, 30, 45, 60, 90, and 120 min after storage, a sample was taken in a volume of 200 μL, diluted in 400 μL of CAN, vortexed for 1 min, and centrifuged for 1 min. The supernatant was analyzed by HPLC (but, for the compound of Example 47, sampling was performed at 0, 1, 3, 5, 7, and 10 min after storage). In addition, measurement was made of the time that it took for the prodrugs to be converted into the acting drug (rebamipide).
# [2] = due to low solubility and low intestinal permeability; cited from earlier work
# [3] = cited from earlier work
# [4] = system: acetic acid-induced gastric ulcers; settings: rats; cited from earlier work
# [5] = in vivo; cited from earlier work
SMILES,half-life at 0.196 mg/mL [1],further results
"CN(C)CCOC(=O)C(Cc1cc(=O)[nH]c2ccccc12)NC(=O)c1ccc(Cl)cc1 (stereo not drawn) [Example 14, 2-Dimethylaminoethyl 2-(4-chlorobenzoylamino)-3-(2-oxo-1,2-dihydroquinolin-4-yl)propionate]",< 2 min,
"CCN(CC)CCOC(=O)C(Cc1cc(=O)[nH]c2ccccc12)NC(=O)c1ccc(Cl)cc1 (stereo not drawn) [Example 16, 2-Diethylaminoethyl 2-(4-chlorobenzoylamino)-3-(2-oxo-1,2-dihydroquinolin-4-yl)propionate]",< 2 min,
"O=C(NC(Cc1cc(=O)[nH]c2ccccc12)C(=O)OCCN1CCCCC1)c1ccc(Cl)cc1 (stereo not drawn) [Example 44, 2-Piperidin-1-ylethyl 2-(4-chlorobenzoylamino)-3-(2-oxo-1,2-dihydroquinolin-4-yl)propionate]",< 2 min,
"O=C(NC(Cc1cc(=O)[nH]c2ccccc12)C(=O)OCCN1CCOCC1)c1ccc(Cl)cc1 (stereo not drawn) [Example 47, 2-Morpholin-4-ylethyl 2-(4-chlorobenzoylamino)-3-(2-oxo-1,2-dihydroquinolin-4-yl)propionate]",2.57 min,time to complete conversion into rebamipide ([1]; FIG. 1): about 10 min
"CN1CCN(C(=O)COC(=O)C(Cc2cc(=O)[nH]c3ccccc23)NC(=O)c2ccc(Cl)cc2)CC1 (stereo not drawn) [Example 99, 2-(4-Methylpiperazin-1-yl)-2-oxoethyl 2-(4-chlorobenzoylamino)-3-(2-oxo-1,2-dihydroquinolin-4-yl)propionate]",< 2 min,
"CCC(OC(=O)C(Cc1cc(=O)[nH]c2ccccc12)NC(=O)c1ccc(Cl)cc1)C(=O)N1CCN(C)CC1 (stereo not drawn) [Example 100, 1-(4-Methylpiperazine-1-carbonyl)propyl 2-(4-chlorobenzoylamino)-3-(2-oxo-1,2-dihydroquinolin-4-yl)propionate]",< 2 min,
"CON(C)C(=O)COC(=O)C(Cc1cc(=O)[nH]c2ccccc12)NC(=O)c1ccc(Cl)cc1 (stereo not drawn) [Example 102, (Methoxymethylcarbamoyl)methyl 2-(4-chlorobenzoylamino)-3-(2-oxo-1,2-dihydroquinolin-4-yl)propionate]",< 2 min,
"O=C(COC(=O)C(Cc1cc(=O)[nH]c2ccccc12)NC(=O)c1ccc(Cl)cc1)OCCN1CCOCC1 (stereo not drawn) [Example 105, 2-Morpholin-4-yl-ethoxycarbonylmethyl 2-(4-chlorobenzoylamino)-3-(2-oxo-1,2-dihydroquinolin-4-yl)propionate]",< 2 min,
"CCC(OC(=O)C(Cc1cc(=O)[nH]c2ccccc12)NC(=O)c1ccc(Cl)cc1)C(=O)OCCN1CCOCC1 (stereo not drawn) [Example 106, 2-Morpholin-4-ylethyl 2-[2-(4-chlorobenzoylamino)-3-(2-oxo-1,2-dihydroquinolin-4-yl)propionyloxy]butyrate]",< 2 min,
"O=C(OCCN1CCOCC1)OCOC(=O)C(Cc1cc(=O)[nH]c2ccccc12)NC(=O)c1ccc(Cl)cc1 (stereo not drawn) [Example 109, 2-Morpholin-4-yl-ethoxycarbonyloxymethyl 2-(4-chlorobenzoylamino)-3-(2-oxo-1,2-dihydroquinolin-4-yl)propionate]",< 2 min,
"CCN(CC)CCSC(=O)C(Cc1cc(=O)[nH]c2ccccc12)NC(=O)c1ccc(Cl)cc1 (stereo not drawn) [Example 121, S-(2-Diethylamino)ethyl 2-(4-chlorobenzoylamino)-3-(2-oxo-1,2-dihydroquinolin-4-yl)thiopropionate]",< 2 min,
"O=C(NC(Cc1cc(=O)[nH]c2ccccc12)C(=O)SCCN1CCCC1)c1ccc(Cl)cc1 (stereo not drawn) [Example 144, S-(2-Pyrrolidin-1-yl)ethyl 2-(4-chlorobenzoylamino)-3-(2-oxo-1,2-dihydroquinolin-4-yl)thiopropionate]",< 2 min,
"O=C(NC(Cc1cc(=O)[nH]c2ccccc12)C(=O)SCCN1CCOCC1)c1ccc(Cl)cc1 (stereo not drawn) [Example 151, S-(2-Morpholin-4-yl)ethyl 2-(4-chlorobenzoylamino)-3-(2-oxo-1,2-dihydroquinolin-4-yl)propionate]",< 2 min,
"Cc1oc(=O)oc1CSC(=O)C(Cc1cc(=O)[nH]c2ccccc12)NC(=O)c1ccc(Cl)cc1 (stereo not drawn) [Example 155, S-(5-Methyl-2-oxo-[1,3]dioxol-4-yl)methyl 2-(4-chlorobenzoylamino)-3-(2-oxo-1,2-dihydroquinolin-4-yl)thiopropionate]",< 2 min,
O=C(NC(Cc1cc(=O)[nH]c2ccccc12)C(=O)O)c1ccc(Cl)cc1 (stereo not drawn) [Rebamipide],,"BCS class [2]: Class IV; aqueous solubility ([3]; pH 3): approximately 0.0001 % (w/v); aqueous solubility ([3]; pH 7): approximately 0.013 % (w/v); solubility in solvents (in words) ([3]; solvent named in the value): freely soluble in dimethylformamide; also recorded: slightly soluble in methanol and ethanol; also recorded: almost insoluble in ether and water; effect on ulcer size, relapse rate and cure rate [4]: reduces sizes and relapse rates of the ulcer while improving the cure rate; bioavailability [5]: around 5%"
